The record followed here is patent US8846704B2, “Thiopyrimidine-based compounds and uses thereof” (YM Biosciences Austraila Pty Ltd, priority 2007, dated 2014).

In assay [1] the target is T1, human JAK3 (Homo sapiens, UniProt P52333).
T1 construct: The kinase domain of human JAK3 was amplified; GST (N); made in house; host or cells: Sf9 insect cells (baculovirus)
Briefly: Alphascreen tyrosine kinase enzyme assay, JAK3 kinase domain. It counts as biochemical. Particulars: read-out: JAK3 IC50_nM. As to the method:
(§1) For screening purposes, compounds (in 100% DMSO) were warmed at 37 degrees for at least 20 minutes before use. A […] stock was initially made in assay buffer, where the final concentration of DMSO was 0.3%. The stocks were then diluted in 384 well Optiplates (Packard) where the final concentration of the compound was […].
The kinase domain of human JAK3 was amplified from U937mRNA using the polymerase chain reaction with the following primers: […]
The JAK3 PCR products were cloned into the pDest20 destination expression vector (Gibco). The JAK3 plasmid was then transformed into competent DH10Bac cells (Gibco), and the recombinant baculovirus was prepared via Sf9 insect cell transfection.
(§2) Baculovirus preparations from each of the constructs were infected into either one or five liters of Sf9 cells (Invitrogen) grown in SF-900 medium (Invitrogen) to a cell density of approximately 1-2×10^6 cells/ml. Cells were infected with virus at a MOI of 0.8-3.0. Cells were harvested and lysed. Tyrosine kinase domains were purified by affinity chromatography on a glutathione-agarose column (Scientifix Pty. Ltd. catalog #: GSH-200).
(§3) Kinase assays were performed in 384 well Optiplates (Packard) using an Alphascreen Protein Tyrosine Kinase PY100 detection kit The compounds were pre-incubated with affinity purified PTK domain in the presence of phosphotyrosine assay buffer (10 mM HEPES, pH 7.5, 100 mM MgCl2, 25 mM NaCl, […] and 0.1% Tween 20) for 20 minutes. The compounds were then incubated with substrate in the presence of ATP. The substrate used was susbtrate-1 with the sequence biotin-EGPWLEEEEEAYGWMDF-NH2 [SEQ. ID. NO. 13] (final concentration […]). For HCK 80 μm ATP was used and incubated for 60 minutes. Alphascreen phosphotyrosine acceptor beads followed by streptavidin donor beads at a concentration of 1/100 in stop buffer were added to each well under subdued light and incubated for 2-3 hours., The Alphascreen plates were read on a Packard Fusion Alpha instrument.

Assay [2] deals with BaF3 wild-type cells. Briefly: Cellular screening, BaF3 wild-type cells, Alamar Blue. It counts as cell-based. Particulars: Mus musculus, 40 hr, read-out: BAF3wt IC50_nM. As to the method: For screening purposes, compounds were diluted in 96 well plates at a concentration of 20 μM. Plates were warmed at 37° C. for 30 minutes before the assay was performed.
The growth factor dependant myelomonocytic cell line BaF3 bearing the pTET-off plasmid (Clontech) was transfected with either pTELJAK2 or pTELJAK3, and the transfected cells were selected for growth-factor independent cell growth. The BaF3 wild-type cells were cultured in DMEM containing 10% FCS, 10% WEHI 3B conditioned medium. The BaF3 TELJAK cells ([…]) were cultured in DMEM 10% Tet-System Approved FBS (without WEHI 3B conditioned medium).
(§4) Cell suspensions were prepared by harvesting cells from culture (the cells used in this test were in late log phase growth with high viability.) Cells were diluted in the appropriate growth medium, as described above, to 1.1× final concentration (from 50,000 cell/mL to 200,000 cell/mL, depending on cell line).
(§5) Compounds to be tested were added (10 μL, 10× final concentration) to a flat bottomed 96-well plate. The cellular suspension (90 μL per well) was then added, and the plate incubated for 40 hr at 37° C., 5% CO2. Alamar Blue 10 μL per well was added and the plates returned to the incubator for a further 4-6 hours. The plates were then read at 544 nm.

For assay [3], the system named is CTLL2. Briefly: Cellular screening, CTLL2 cells, Alamar Blue. It counts as cell-based. Particulars: Mus musculus, CTLL-2, read-out: CTLL2 IC50_nM. On the procedure:
as §4, §5

The target of assay [4] is T2, human JAK1 (Homo sapiens, UniProt P23458).
T2 construct: The kinase domain of human JAK1 was amplified; GST (N); made in house; host or cells: Sf9 insect cells (baculovirus)
T2 sequence (P23458 875-1153 limits assumed): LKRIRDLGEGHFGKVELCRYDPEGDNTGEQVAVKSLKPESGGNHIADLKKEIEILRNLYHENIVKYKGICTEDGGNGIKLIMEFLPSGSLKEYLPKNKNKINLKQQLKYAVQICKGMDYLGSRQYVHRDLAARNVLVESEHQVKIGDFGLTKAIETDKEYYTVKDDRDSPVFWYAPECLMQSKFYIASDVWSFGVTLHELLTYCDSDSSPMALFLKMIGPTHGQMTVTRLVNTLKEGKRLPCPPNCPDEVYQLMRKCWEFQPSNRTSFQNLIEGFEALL
Briefly: Alphascreen tyrosine kinase enzyme assay, JAK1 kinase domain. It counts as biochemical. Particulars: read-out: JAK1 IC50_nM. As to the method:
as §1
The kinase domain of human JAK1 was amplified from U937mRNA using the polymerase chain reaction with the following primers: […]
The JAK1 PCR products were cloned into the pDest20 destination vector (Gibco). The JAK1 plasmid was then transformed into competent DH10Bac cells (Gibco), and the recombinant baculovirus was prepared via Sf9 insect cell transfection.
as §2, §3

T1 sequence (P52333 822-1111 limits assumed): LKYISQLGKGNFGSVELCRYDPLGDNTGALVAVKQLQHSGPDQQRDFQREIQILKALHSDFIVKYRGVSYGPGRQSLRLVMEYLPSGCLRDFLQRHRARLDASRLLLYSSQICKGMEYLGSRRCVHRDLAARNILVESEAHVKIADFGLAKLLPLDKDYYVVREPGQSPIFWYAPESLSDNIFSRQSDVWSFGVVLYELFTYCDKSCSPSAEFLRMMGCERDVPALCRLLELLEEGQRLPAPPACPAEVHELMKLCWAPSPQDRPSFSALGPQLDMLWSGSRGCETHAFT

Regarding `C=CC(=O)Nc1cccc(Nc2nccc(Sc3ccccn3)n2)c1` [Compound 2, N-(3-(4-(pyridin-2-ylthio)pyrimidin-2-ylamino)phenyl)acrylamide], the IC50 in assay [1] is less than 0.1 µM; in assay [2], less than 5 µM; in assay [3], less than 5 µM; in assay [4], more than 1 µM.

Regarding `CC#CC(=O)Nc1cccc(Nc2nccc(SC)n2)c1` [Compound 8, N-(3-(4-(methylthio)pyrimidin-2-ylao)phenyl)but-2-ynamide], the IC50 was less than 0.1 µM in assay [1], less than 20 µM in assay [2] and less than 20 µM in assay [3].

On to `C=CC(=O)Nc1ccc(Nc2nccc(SC)n2)cc1` [Compound 13, N-(4-(4-(methylthio)pyrimidin-2-ylao)phenyl)acrylamide], for which the IC50 in assay [1] was less than 0.1 µM; in assay [2], more than 20 µM; in assay [3], more than 20 µM.

In the case of `C=CC(=O)Nc1cccc(Nc2nccc(Sc3ccccc3)n2)c1` [Compound 16, N-(3-(4-(phenylthio)pyrimidin-2-ylamino)phenyl)acrylamide], the results for the IC50 in assay [1], in assay [2] and in assay [3] were less than 0.1 µM, less than 20 µM and less than 5 µM, respectively.

For `N#CCC(=O)Nc1cccc(Sc2ccnc(Nc3ccc(N4CCOCC4)cc3)n2)c1` [Compound 24, N-(3-(2-(4-morpholinophenylamino)pyrimidin-4-ylthio)phenyl)-2-cyanoacetamide], the values for the IC50 in assay [2], in assay [3] and in assay [4] were less than 20 µM, less than 20 µM and more than 1 µM, respectively.

For the compound `CC#CC(=O)Nc1cccc(Sc2ccnc(Nc3cccc(N4CCOCC4)c3)n2)c1` [Compound 232, N-(3-(2-(3-morpholinophenylao)pyrimidin-4-ylthio)phenyl)but-2-ynamide], in assay [1], the IC50 was less than 0.1 µM.

Regarding `COc1ccc(Nc2ncc(C)c(Sc3ccc(N)cc3)n2)cc1OC` [Compound 240, 4-(4-aophenylthio)-N-(3,4-dimethoxyphenyl)-5-methylpyrimidin-2-ae], the IC50 in assay [1] was less than 0.5 µM; in assay [2], less than 1 µM; in assay [3], less than 5 µM.

For the compound `C=CC(=O)Nc1ccc(Sc2nc(Nc3ccc(C)c(Br)c3)ncc2C)cc1` [Compound 242, N-(4-(2-(3-bromo-4-methylphenylao)-5-methylpyrimidin-4-ylthio)phenyl)acrylamide], the values for the IC50 in assay [1], in assay [2] and in assay [3] were less than 0.5 µM, more than 20 µM and more than 20 µM, respectively.

Turning to `Cc1cnc(Nc2ccc(N3CCN(C)CC3)cc2)nc1Sc1ccc(N)cc1` [Compound 244, 4-(4-aophenylthio)-5-methyl-N-(4-(4-methylpiperazin-1-yl)phenyl)pyrimidin-2-ae], the IC50 in assay [1] was less than 0.1 µM; in assay [2] it was less than 5 µM; in assay [3], less than 5 µM.

As to `Cc1cnc(Nc2cccc(N3CCN(C)CC3)c2)nc1Sc1ccc(N)cc1` [Compound 245, 4-(4-aophenylthio)-5-methyl-N-(3-(4-methylpiperazin-1-yl)phenyl)pyrimidin-2-ae], the IC50 is less than 0.5 µM in assay [1], less than 1 µM in assay [2] and less than 5 µM in assay [3].

For `C=CC(=O)Nc1ccc(Sc2nc(Nc3ccc(N4CCN(C)CC4)c(OC)c3)ncc2C)cc1` [Compound 249, N-(4-(2-(3-methoxy-4-(4-methylpiperazin-1-yl)phenylao)-5-methylpyrimidin-4-ylthio)phenyl)acrylamide], the values for the IC50 in assay [1], in assay [2] and in assay [3] were less than 0.1 µM, less than 5 µM and less than 1 µM, respectively.

As for `Cc1cnc(Nc2ccc(N3CCOCC3)cc2)nc1Sc1ccc(N)cc1Cl` [Compound 251, 4-(4-ao-2-chlorophenylthio)-5-methyl-N-(4-morpholinophenyl)pyrimidin-2-ae], the figures for the IC50 in assay [1], in assay [2] and in assay [3] were less than 0.1 µM, more than 20 µM and more than 20 µM, respectively.

`C=CC(=O)Nc1ccc(Sc2nc(Nc3ccc(N4CCC(CO)CC4)cc3)ncc2Br)cc1` [Compound 253, N-(4-(5-bromo-2-(4-(4-(hydroxymethyl)piperidin-1-yl)phenylao)pyrimidin-4-ylthio)phenyl)acrylamide]: the IC50 in assay [1] is less than 0.1 µM; in assay [2], more than 20 µM; in assay [3], less than 1 µM.

Turning to `C=CC(=O)Nc1ccc(Sc2nc(Nc3ccc(N4CCOCC4)nc3)ncc2C)cc1` [Compound 254, N-(4-(5-methyl-2-(6-morpholinopyridin-3-ylao)pyrimidin-4-ylthio)phenyl)acrylamide], the IC50 is less than 0.1 µM in assay [1], less than 5 µM in assay [2] and less than 1 µM in assay [3].

As to `Cc1cc(Sc2nc(Nc3ccc(N4CCOCC4)cc3)ncc2C)ccc1N` [Compound 255, 4-(4-ao-3-methylphenylthio)-5-methyl-N-(4-morpholinophenyl)pyrimidin-2-ae], the IC50 was less than 0.5 µM in assay [1], less than 20 µM in assay [2] and more than 20 µM in assay [3].

Turning to `C=CC(=O)Nc1ccc(Sc2nc(Nc3ccc(N4CCOCC4)cc3)ncc2C)cc1C` [Compound 259], the IC50 in assay [1] is less than 0.1 µM; in assay [2], less than 20 µM; in assay [3], less than 1 µM.

As to `C=CC(=O)Nc1ccc(Sc2nc(Nc3ccc(N4CCOCC4)cc3)ncc2C)cc1CC` [Compound 260, N-(2-ethyl-4-(5-methyl-2-(4-morpholinophenylao)pyrimidin-4-ylthio)phenyl)acrylamide], the IC50 in assay [1] was less than 0.1 µM; in assay [2], more than 20 µM; in assay [3] it was less than 5 µM.

For `Cc1cnc(Nc2ccc(N3CCOCC3)cc2)nc1Sc1ccc(N)nc1` [Compound 262, 4-(6-aopyridin-3-ylthio)-5-methyl-N-(4-morpholinophenyl)pyrimidin-2-ae], the IC50 in assay [1] is less than 0.5 µM; in assay [2] it was more than 20 µM; in assay [3] it was more than 20 µM.

As for `Nc1ccc(Sc2nc(Nc3ccc(N4CCOCC4)cc3)ncc2F)cc1` [Compound 263, 4-(4-aophenylthio)-5-fluoro-N-(4-morpholinophenyl)pyrimidin-2-ae], the IC50 is less than 0.5 µM in assay [1], less than 5 µM in assay [2] and more than 20 µM in assay [3].

As for `Nc1ccc(Sc2nc(Nc3cccc(N4CCOCC4)c3)ncc2I)cc1` [Compound 264, 4-(4-aophenylthio)-5-iodo-N-(3-morpholinophenyl)pyrimidin-2-ae], the values for the IC50 in assay [1], in assay [2] and in assay [3] were less than 0.5 µM, less than 5 µM and less than 5 µM, respectively.

In the case of `C=CC(=O)Nc1ccc(Sc2nc(Nc3cccc(N4CCOCC4)c3)ncc2I)cc1` [Compound 269, N-(4-(5-iodo-2-(3-morpholinophenylao)pyrimidin-4-ylthio)phenyl)acrylamide], the IC50 in assay [1] was less than 0.1 µM.

As for `C=CC(=O)Nc1ccc(Sc2ccnc(Nc3ccc(O)cc3)n2)cc1` [Compound 276, N-(4-(2-(4-hydroxyphenylao)pyrimidin-4-ylthio)phenyl)acrylamide], the IC50 was less than 0.1 µM in assay [1], less than 20 µM in assay [2] and less than 1 µM in assay [3].

For the compound `C=CC(=O)Nc1ccc(Sc2ccnc(Nc3cccc(O)c3)n2)cc1` [Compound 277, N-(4-(2-(3-hydroxyphenylao)pyrimidin-4-ylthio)phenyl)acrylamide], the IC50 is less than 0.1 µM in assay [1], more than 20 µM in assay [2] and less than 1 µM in assay [3].

Take `C=CC(=O)Nc1ccc(Sc2ccnc(Nc3cccc(CO)c3)n2)cc1` [Compound 278, N-(4-(2-(3-(hydroxymethyl)phenylao)pyrimidin-4-ylthio)phenyl)acrylamide]: the IC50 in assay [1] is less than 0.1 µM.
